Marks after values point to notes of the source that are not given here.
How the values were obtained:
[1] = tested on: B(a)P-induced lung adenoma; test: Tumor bioassay: B(a)P-induced lung tumorigenesis, ITC-NAC conjugates in diet during post-initiation phase
Experimental: The ITC conjugates were incorporated (15 μmol/g diet) into AIN-76A diets (5% corn oil) by mixing with dextrose prior to diet preparation. The conjugates, 9.36 g BITC-NAC (15 mmol) or 9.79 g PEITC-NAC (15 mmol), were dissolved in 50 ml ethyl acetate, and then mixed with 200 g dextrose to ensure even coating of dextrose particles. After mixing with dextrose, the solvent was removed using a rotary evaporator and further dried using a vacuum pump (2-3 h). Diets were prepared in 1-2 kg batches, and were stored at 4° C. in a container purged with nitrogen. […] Stability was determined by extraction of 0.5 g portions of the diet with 2.5 ml methanol (2×). The methanol extracts were combined and a 1 ml aliquot was filtered using a 0.47 μm syringe filter. A 10 μl sample was then analyzed on HPLC (Jiao, et al., Chem. Res. Toxicol., 9: 932-938, 1996).
Tumor Bioassay: Female strain A mice (Jackson Laboratories, Bar Harbor, Me.) of four weeks of age were housed under quarantine in polycarbonate cages (5 mice/cage) and provided modified AIN 76A diet (5% corn oil) and acidified drinking water ad libitum. The mice were maintained on a 12 h light: 12 h dark regimen at 22±5° C. and 50±20% relative humidity. After one week, the mice were weighed, and distributed into four groups containing 30 to 35 mice on the basis of body weight. At seven weeks of age, the mice in groups 1-3 were gavaged with a single dose of 20 μmol B(a)P in 0.2 ml cottonseed oil; group 4 received the vehicle only. Two days after dosing with the carcinogen, diets containing BITC-NAC (15 μmol/g, Group 2) and PEITC-NAC (15 μmol/g, Group 3) were provided. Groups 1 (B[a]P control) and 4 (vehicle only) remained on the modified AIN-76A diet with 5% corn oil. Tap water was provided ad libitum during the course of the bioassay. Mice were observed daily; diets were replenished on the fourth day of the week, and completely replaced on the seventh day. Mice were weighed weekly for four weeks, then monthly and at termination. At 84 days after B(a)P dosing, four mice per group were killed (CO2, cervical dislocation) to harvest lung tissues for molecular and immunohistochemical studies and to quantify lung adenomas, if present. At 140 days after B(a)P, the remaining mice in each group were killed. The number of lung tumors was recorded; lobes of lungs were placed in 10% phosphate buffered formalin for histological and immunohistochemical analysis. The remaining lung lobes were snap frozen in liquid nitrogen.
Mean tumor multiplicity and body weights at each time point were compared between groups using Student's T test.

[2] = tested on: alveolar epithelium cells of lung; test: In situ end-labeling (ISEL/TUNEL) of apoptosis in lung sections; assay type: in vivo, A/J mice
JNK 1 and 2 = test: Western blot of lung total proteins: JNK phosphorylation; assay type: in vivo, A/J mice; settings: lung tissue 21 days after B(a)P
p53 = test: Western blot of lung proteins: p53 expression and phosphorylation; assay type: in vivo, A/J mice; settings: lungs at termination of the bioassay
[3] = tested on: c-Jun (AP-1 pathway) and Akt pathway genes; test: Mouse Cancer Pathway Finder Gene Array on lung RNA; assay type: in vivo, A/J mice; settings: PEITC-NAC high dose diet vs control diet
Description: Some mice also had developed forestomach masses. […] Findings involving other pathways will be presented.

A549/TAM67 cells = test: Apoptosis in A549/TAM67 transfectants (morphology, DNA fragmentation, annexin V, PARP Western blot); assay type: cell-based, human; settings: 25 μM
A549 cells = test: Cell cycle phase-specific DNA strand breaks (TUNEL) in A549 cells; assay type: cell-based, human
Experimental: Detection of cell cycle phase-specific DNA strand breaks (“TUNEL”): A549 cells were fixed with 1% formaldehyde for 15 min and then permabilized by post-fixation in 70% ethanol. The presence of in situ DNA strand breaks, a characteristic feature of apoptosis was detected by labeling them with a fluorochrome-conjugated nucleotide in the reaction catalyzed by the terminal deoxynucleotidyl transferase; cellular DNA was counterstained with DAPI. The kit provided by Phoenix Flow Systems (San Diego, Calif.) was used in this assay. This method is also described in detail elsewhere (Gorczyca et al., Internat J. Oncol. 1992, 1:639-648). Green and red fluorescence of cells probed for DNA strand breaks and DNA content was measured using a FACScan flow cytometer (Becton Dickinson, San Jose, Calif.) with standard settings of green (strand breaks) and red (DNA) fluorescence detection. To calculate the percentage of apoptotic cells in respective phases of cell cycle, DNA content frequency histograms were deconvoluted using CELLQuest software.
Apoptosis induced by PEITC-NAC occurs predominantly in dividing cells. […] DNA strand breaks during apoptosis was detected by end-labeling, which was combined with analysis of the cellular DNA content. […]

Structure (SMILES): CC(=O)N[C@@H](CSC(=S)NCCc1ccccc1)C(=O)O [PEITC-NAC, N-acetylcysteine Conjugate of phenethyl isothiocyanate]
- tumor multiplicity ([1]; 15 μmol/g diet after B(a)P, at termination, B(a)P control 6.1±3.1): 3.4±2.7 tumors/mouse
- Tumor Incidence (%), lung adenoma ([1]; 15 μmol/g diet from 2 days after 20 μmol B(a)P, 140 days): 89%
- Tumor multiplicity (no. of tumors/mice), lung adenoma ([1]; 15 μmol/g diet from 2 days after 20 μmol B(a)P, 140 days, mean ± SD): 3.39 ± 2.71^b no. of tumors/mice
- average body weight at termination ([1]; 15 μmol/g diet, controls 25.8 g and 25.7 g): 22.8 g
- tumor reduction ([1]; versus B(a)P control diet group, at termination): 44%
- increase in apoptosis, non-tumorous lung tissue ([2]; after 140 days): 2.3 fold
- apoptotic index, fold elevation ([2]; lung tissue at 84 days, before tumors appeared): approximately 2 fold
- JNK 1 (p46) phosphorylation level (JNK 1 and 2): increase
- JNK 2 (p54) phosphorylation (JNK 1 and 2): only slightly induced
- phosphorylation of p53 at Ser15 (p53): stronger increase
- c-Jun expression (AP-1 pathway) and Akt pathway genes [3]: up-regulated
- PARP 89 kD cleavage fragment (A549/TAM67 cells; 3 h): a defined 89 kD band
- cell survival (annexin V-Cy3 / 6-CFDA staining) (A549/TAM67 cells; 20 h): nearly no cell survival
- PARP protein (A549/TAM67 cells; 24 h): completely degraded
- cell survival (morphology, DNA fragmentation) (A549/TAM67 cells; 24 h): most TAM67 transfectants had already died
- cell cycle distribution (A549 cells; 25 μM, 16 h): a substantial portion of the cells accumulate in G2M phase
- apoptotic cells by DNA strand break labeling (A549 cells; 50 μM, 24 h): a distinct population of apoptotic cells
